{"source": "patent US20260274892A1", "about": "“MACROCYCLIC BROAD SPECTRUM ANTIBIOTICS” (RQx Pharmaceuticals, Inc., priority 2017, published 2026)", "key": {"[1]": {"tested_on": "Methicillin Resistant Staphylococcus aureus strain USA 200", "assay": "Minimum inhibitory concentration (MIC), CLSI broth micro-dilution, S. aureus", "format": "cell-based", "settings": "Staphylococcus aureus, MRSA / USA200; Table 6; MRSA USA 200; cation adjusted Mueller Hinton Broth + 0.002% Tween-80; 35° C., 22 hours", "how_it_was_run": "(§1)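 Antibacterial potency is measured as MIC by the CLSI broth dilution method. Bacteria at OD600 0.0005 in Tween-80-supplemented cation-adjusted Mueller Hinton broth face ten twofold compound dilutions for 22 h at 35° C.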"}, "[2]": {"tested_on": "Escherichia coli ATCC 25922", "assay": "Minimum inhibitory concentration (MIC), CLSI broth micro-dilution, E. coli", "format": "cell-based", "settings": "Escherichia coli, ATCC25922, 22 h, Table 6, cation adjusted Mueller Hinton Broth + 0.002% Tween-80, 35° C.", "how_it_was_run": "as §1"}}, "data": [{"smiles": "Cc1nc(-c2ccc3c(c2)OCCC3(C)C)nc(C)c1C(=O)N[C@@H](CCN)C(=O)N(C)[C@@H]1C(=O)N[C@@H](C)C(=O)N[C@H](C(=O)NCC#N)Cc2ccc(OCCN)c(c2)-c2cc1ccc2OCCN", "note": "(racemic) [Compound 271, rac-(8S,11S,14S)-3,18-bis(2-aminoethoxy)-N-(cyanomethyl)-11-methyl-14-[methyl-[rac-(2S)-4-amino-2-[[2-(4,4-dimethylchroman-7-yl)-4,6-dimethyl-pyrimidine-5-carbonyl]amino]butanoyl]amino]-10,13-dioxo-9,12-diazatricyclo[13.3.1.12,6]icosa-1(18),2(20),3,5,15(19),16-hexaene-8-carboxamide]", "values": [{"measurement": "MIC", "setting": "[1]", "value": 0.032, "unit": "µM"}, {"measurement": "MIC", "setting": "[2]", "value": 0.26, "unit": "µM"}]}, {"smiles": "CC(=O)NCCOc1ccc2cc1-c1cc(ccc1OCCN)[C@H](N(C)C(=O)[C@H](CCN)NC(=O)c1c(C)nc(-c3ccc(C(C)(C)C)cc3)nc1C)C(=O)N[C@@H](C)C(=O)N[C@H](C(=O)NCC#N)C2", "note": "(racemic) [Compound 517, rac-(8S,11S,14S)-3-(2-acetamidoethoxy)-18-(2-aminoethoxy)-N-(cyanomethyl)-11-methyl-14-[methyl-[rac-(2S)-4-amino-2-[[2-(4-tert-butylphenyl)-4,6-dimethyl-pyrimidine-5-carbonyl]amino]butanoyl]amino]-10,13-dioxo-9,12-diazatricyclo[13.3.1.12,6]icosa-1(18),2(20),3,5,15(19),16-hexaene-8-carboxamide]", "values": [{"measurement": "MIC", "setting": "[1]", "value": 0.19, "unit": "µM"}, {"measurement": "MIC", "setting": "[2]", "value": 0.75, "unit": "µM"}]}, {"smiles": "CCCCCCc1ccc(C(=O)N[C@@H](CCN)C(=O)N(CC)[C@@H]2C(=O)N[C@@H](C)C(=O)N[C@H](C(=O)NCC#N)Cc3ccc(O)c(c3)-c3cc2ccc3O)c(C)c1", "note": "(racemic) [Compound 473, rac-(8S,11S,14S)-N-(cyanomethyl)-14-[ethyl-[rac-(2S)-4-amino-2-[(4-hexyl-2-methyl-benzoyl)amino]butanoyl]amino]-3,18-dihydroxy-11-methyl-10,13-dioxo-9,12-diazatricyclo[13.3.1.12,6]icosa-1(18),2(20),3,5,15(19),16-hexaene-8-carboxamide]", "values": [{"measurement": "MIC", "setting": "[1]", "value": 0.31, "unit": "µM"}, {"measurement": "MIC", "setting": "[2]", "value": 4.9, "unit": "µM"}]}, {"smiles": "CCCCC1(Oc2ccc(-c3nc(C)c(C(=O)N[C@@H](CCN)C(=O)N(C)[C@@H]4C(=O)N[C@@H](C)C(=O)N[C@H](C(=O)NCC#N)Cc5ccc(OCCN)c(c5)-c5cc4ccc5OCCN)c(C)n3)cc2)CC1", "note": "(racemic) [Compound 347, rac-(8S,11S,14S)-3,18-bis(2-aminoethoxy)-N-(cyanomethyl)-11-methyl-14-[methyl-[rac-(2S)-4-amino-2-[[2-[4-(1-butylcyclopropoxy)phenyl]-4,6-dimethyl-pyrimidine-5-carbonyl]amino]butanoyl]amino]-10,13-dioxo-9,12-diazatricyclo[13.3.1.12,6]icosa-1(18),2(20),3,5,15(19),16-hexaene-8-carboxamide]", "values": [{"measurement": "MIC", "setting": "[1]", "value": 0.047, "unit": "µM"}, {"measurement": "MIC", "setting": "[2]", "value": 0.25, "unit": "µM"}]}, {"smiles": "Cc1nc(-c2ccc(C(C)(C)C)cc2)nc(N)c1C(=O)N[C@@H](CCN)C(=O)N(C)[C@@H]1C(=O)N[C@@H](C)C(=O)N[C@H](C(=O)NCC#N)Cc2ccc(O)c(c2)-c2cc1ccc2OCCN", "note": "(racemic) [Compound 548, rac-(8S,11S,14S)-18-(2-aminoethoxy)-N-(cyanomethyl)-3-hydroxy-11-methyl-14-[methyl-[rac-(2S)-4-amino-2-[[4-amino-2-(4-tert-butylphenyl)-6-methyl-pyrimidine-5-carbonyl]amino]butanoyl]amino]-10,13-dioxo-9,12-diazatricyclo[13.3.1.12,6]icosa-1(18),2(20),3,5,15(19),16-hexaene-8-carboxamide]", "values": [{"measurement": "MIC", "setting": "[1]", "value": 0.047, "unit": "µM"}, {"measurement": "MIC", "setting": "[2]", "value": 0.46, "unit": "µM"}]}, {"smiles": "Cc1nc(-c2ccc3c(c2)CCC3(C)C)ncc1C(=O)N[C@@H](CCN)C(=O)N(C)[C@@H]1C(=O)N[C@@H](C)C(=O)N[C@H](C(=O)NCC#N)Cc2ccc(OCCN)c(c2)-c2cc1ccc2OCCN", "note": "(racemic) [Compound 234, rac-(8S,11S,14S)-3,18-bis(2-aminoethoxy)-N-(cyanomethyl)-11-methyl-14-[methyl-[rac-(2S)-4-amino-2-[[2-(1,1-dimethylindan-5-yl)-4-methyl-pyrimidine-5-carbonyl]amino]butanoyl]amino]-10,13-dioxo-9,12-diazatricyclo[13.3.1.12,6]icosa-1(18),2(20),3,5,15(19),16-hexaene-8-carboxamide]", "values": [{"measurement": "MIC", "setting": "[1]", "value": 0.0082, "unit": "µM"}, {"measurement": "MIC", "setting": "[2]", "value": 0.066, "unit": "µM"}]}, {"smiles": "COc1nc(-c2ccc(C(C)(C)C)cc2)nc(C)c1C(=O)N[C@@H](CCN)C(=O)N(C)[C@@H]1C(=O)N[C@@H](C)C(=O)N[C@H](C(=O)NCC#N)Cc2ccc(OCCN)c(c2)-c2cc1ccc2OCCN", "note": "(racemic) [Compound 422, rac-(8S,11S,14S)-3,18-bis(2-aminoethoxy)-N-(cyanomethyl)-11-methyl-14-[methyl-[rac-(2S)-4-amino-2-[[2-(4-tert-butylphenyl)-4-methoxy-6-methyl-pyrimidine-5-carbonyl]amino]butanoyl]amino]-10,13-dioxo-9,12-diazatricyclo[13.3.1.12,6]icosa-1(18),2(20),3,5,15(19),16-hexaene-8-carboxamide]", "values": [{"measurement": "MIC", "setting": "[1]", "value": 0.031, "unit": "µM"}, {"measurement": "MIC", "setting": "[2]", "value": 0.38, "unit": "µM"}]}, {"smiles": "Cc1cc(-c2ccc(C(C)(C)C)cc2N)nc(C)c1C(=O)N[C@@H](CCN)C(=O)N(C)[C@@H]1C(=O)N[C@@H](C)C(=O)N[C@H](C(=O)NCC#N)Cc2ccc(OCCN)c(c2)-c2cc1ccc2OCCN", "note": "(racemic) [Compound 369, rac-(8S,11S,14S)-3,18-bis(2-aminoethoxy)-N-(cyanomethyl)-11-methyl-14-[methyl-[rac-(2S)-4-amino-2-[[6-(2-amino-4-tert-butyl-phenyl)-2,4-dimethyl-pyridine-3-carbonyl]amino]butanoyl]amino]-10,13-dioxo-9,12-diazatricyclo[13.3.1.12,6]icosa-1(18),2(20),3,5,15(19),16-hexaene-8-carboxamide]", "values": [{"measurement": "MIC", "setting": "[1]", "value": 0.047, "unit": "µM"}, {"measurement": "MIC", "setting": "[2]", "value": 0.75, "unit": "µM"}]}, {"smiles": "Cc1nc([C@H]2CC[C@@H](C(C)(C)C)CC2)nc(C)c1C(=O)N[C@@H](CCN)C(=O)N(C)[C@@H]1C(=O)N[C@@H](C)C(=O)N[C@H](C(=O)NCC#N)Cc2ccc(OCCN)c(c2)-c2cc1ccc2OCCN", "note": "[Compound 297, rac-(8S,11S,14S)-3,18-bis(2-aminoethoxy)-N-(cyanomethyl)-11-methyl-14-[methyl-[rac-(2S)-4-amino-2-[[2-(4-tert-butylcyclohexyl)-4,6-dimethyl-pyrimidine-5-carbonyl]amino]butanoyl]amino]-10,13-dioxo-9,12-diazatricyclo[13.3.1.12,6]icosa-1(18),2(20),3,5,15(19),16-hexaene-8-carboxamide]", "values": [{"measurement": "MIC", "setting": "[1]", "value": 0.016, "unit": "µM"}, {"measurement": "MIC", "setting": "[2]", "value": 0.75, "unit": "µM"}]}, {"smiles": "Cc1cc(Oc2ccc(C(C)(C)C)cc2)cc(C)c1C(=O)N[C@@H](CCN)C(=O)N(C)[C@@H]1C(=O)N[C@@H](C)C(=O)N[C@H](C(=O)NCC#N)Cc2ccc(OCCN)c(c2)-c2cc1ccc2OCCN", "note": "(racemic) [Compound 375, rac-(8S,11S,14S)-3,18-bis(2-aminoethoxy)-N-(cyanomethyl)-11-methyl-14-[methyl-[rac-(2S)-4-amino-2-[[4-(4-tert-butylphenoxy)-2,6-dimethyl-benzoyl]amino]butanoyl]amino]-10,13-dioxo-9,12-diazatricyclo[13.3.1.12,6]icosa-1(18),2(20),3,5,15(19),16-hexaene-8-carboxamide]", "values": [{"measurement": "MIC", "setting": "[1]", "value": 0.031, "unit": "µM"}, {"measurement": "MIC", "setting": "[2]", "value": 0.5, "unit": "µM"}]}, {"smiles": "CCCCCCOc1ccc(-c2nc(C)c(C(=O)N[C@@H](CCN)C(=O)N(C)[C@@H]3C(=O)N[C@@H](C)C(=O)N[C@H](C(=O)NCC#N)Cc4ccc(OCCN)c(c4)-c4cc3ccc4OCCN)c(C)n2)cc1", "note": "(racemic) [Compound 332, rac-(8S,11S,14S)-3,18-bis(2-aminoethoxy)-N-(cyanomethyl)-11-methyl-14-[methyl-[rac-(2S)-4-amino-2-[[2-(4-hexoxyphenyl)-4,6-dimethyl-pyrimidine-5-carbonyl]amino]butanoyl]amino]-10,13-dioxo-9,12-diazatricyclo[13.3.1.12,6]icosa-1(18),2(20),3,5,15(19),16-hexaene-8-carboxamide]", "values": [{"measurement": "MIC", "setting": "[1]", "value": 0.0078, "unit": "µM"}, {"measurement": "MIC", "setting": "[2]", "value": 0.063, "unit": "µM"}]}, {"smiles": "Cc1nc(-c2ccc(N3CCC3)cc2)nc(C)c1C(=O)N[C@@H](CCN)C(=O)N(C)[C@@H]1C(=O)N[C@@H](C)C(=O)N[C@H](C(=O)NCC#N)Cc2ccc(OCCN)c(c2)-c2cc1ccc2OCCN", "note": "(racemic) [Compound 323, rac-(8S,11S,14S)-3,18-bis(2-aminoethoxy)-N-(cyanomethyl)-11-methyl-14-[methyl-[rac-(2S)-4-amino-2-[[2-[4-(azetidin-1-yl)phenyl]-4,6-dimethyl-pyrimidine-5-carbonyl]amino]butanoyl]amino]-10,13-dioxo-9,12-diazatricyclo[13.3.1.12,6]icosa-1(18),2(20),3,5,15(19),16-hexaene-8-carboxamide]", "values": [{"measurement": "MIC", "setting": "[1]", "value": 0.38, "unit": "µM"}, {"measurement": "MIC", "setting": "[2]", "value": 1, "unit": "µM"}]}, {"smiles": "Cc1nc(-c2ccc(N3CCCC3)cc2)nc(C)c1C(=O)N[C@@H](CCN)C(=O)N(C)[C@@H]1C(=O)N[C@@H](C)C(=O)N[C@H](C(=O)NCC#N)Cc2ccc(OCCN)c(c2)-c2cc1ccc2OCCN", "note": "(racemic) [Compound 321, rac-(8S,11S,14S)-3,18-bis(2-aminoethoxy)-N-(cyanomethyl)-11-methyl-14-[methyl-[rac-(2S)-4-amino-2-[[4,6-dimethyl-2-(4-pyrrolidin-1-ylphenyl)pyrimidine-5-carbonyl]amino]butanoyl]amino]-10,13-dioxo-9,12-diazatricyclo[13.3.1.12,6]icosa-1(18),2(20),3,5,15(19),16-hexaene-8-carboxamide]", "values": [{"measurement": "MIC", "setting": "[1]", "value": 0.047, "unit": "µM"}, {"measurement": "MIC", "setting": "[2]", "value": 0.38, "unit": "µM"}]}]}
